Patent US5681823A, “P^1, P^4 -dithio-P^2 -P^3 -monochloromethylene 5', 5'"-diadenosine P^1, P^4 -tetraphosphate as antithrombotic agent” (PRP Inc., priority 1996, dated 1997)
“Also recorded” adds a separate entry of the source. Where two headings read alike, the source gives them in different places. One block for each compound: values may come before it.

Columns and labels:
[1] = test system: Cytoplasmic Calcium Ion (Ca^++) Mobilization in platelets; test: Cytoplasmic calcium ion mobilization in platelets (Indo-1, flow cytometer); assay type: cell-based, human; details: unstimulated peak 133
Method: (§1) Unless otherwise provided below, the experimental procedures were performed according to the procedures provided in U.S. Pat. No. 5,049.550 (Zamecnik '550), the entire contents of which are incorporated herein by reference. Some alternative procedures (e.g., release reaction, PF3 assays) and a number of additional studies also are provided (e.g., cytoplasmic calcium mobilization, fibrinogen binding site, agonists other than ADP, platelet cAMP and distribution of CHCl-AP4 A into blood components). Blood was collected in a 0.1 volume of 3.8% sodium citrate from healthy human volunteers who had abstained from antiplatelet agents for at least 10 days. Platelet rich plasma (PRP) was separated by a gradual centrifugation and adjusted to 3.3×10^8 platelets per ml plasma. PRP has been utilized in the Examples unless otherwise stated.
An increment of cytoplasmic Ca^++ in the platelets represents an activated state. Indo-1 acetomethyl ester (Indo-1) commonly has been utilized as the reagent to detect intracellular free Ca^++. Indo-1 reacts with Ca^++ and produces fluorescence which can be monitored in a dual wavelength (408/485) flow cytometer (Coulter EPIC Systems). Platelets were incubated with Indo-1 at 37° C. for 45 min. Excess Indo-1 in the medium was removed by gel-filtration method. Indo-1-loaded platelets were then activated by 6.7 μM ADP in the absence or presence of thio-CHCl-AP4 A (3.3 μM) or CHCl-AP4 A (6.7 μM). Fluorescence intensity of the platelets was monitored and plotted against platelet number. The histograms generated from the plots were analyzed. Unstimulated platelets registered fluorescence intensity (FI) between 42 and 250 with a peak at 133 (base line control).

[2] = test system: ADP-induced platelet aggregation; details: cited from earlier work
[3] = cited from earlier work
[4] = cited from earlier work; remark: listed apart in the source
[5] = test system: ADP-induced platelet aggregation; thrombus formation; details: in words; cited from earlier work
[6] = test system: ADP-induced platelet aggregation; details: Zamecnik '550 Table 3; cited from earlier work
[7] = test system: ADP-induced platelet aggregation; test: ADP-induced platelet aggregation in platelet-rich plasma (turbidimetric method of Born, aggregometer); assay type: cell-based, human; details: ADP-induced aggregation, PRP, mean of three (*) or two determinations
Method: as §1
An initial screening was performed for inhibitory effects of several agents (including, e.g., thio-CHCl-AP4 A and CHCl-AP4 A as reference agent)) on platelet aggregation induced by ADP. Platelet aggregation was measured with platelet-rich plasma (PKP) by the turbidimetric method of Born (J. Physiol. 162:67, 1962) in an aggregometer (Chrono-log, Model 530 VS). Platelet aggregation induced by 5 μM ADP in the absence or presence of 5 μM agents was examined. […] The IC50 value of the CHCl-AP4 A (reference agent) was consistent with the value reported previously (P. Zamecnik et al., Proc. Nat'l. Acad. Sci. USA 89:2370-2373 (1992)).

platelet cAMP level [8] = test: Level of intracellular platelet cAMP (etheno-cAMP, HPLC); assay type: cell-based, human; details: 10 μM agent, 37° C., 5 min; control 31.6
Method: as §1
The inhibitory effect of cAMP on platelet aggregation has been known as a counteraction of calcium ion mobilization. Accordingly, the inhibitory effects of the agents with respect to a cAMP mediated mechanism was tested. PRP was incubated with saline (control), agents (at 20 μM and 100 μM), or forskolin (10 μM) at 37° C. for 5 min. After incubation, extracts were made using Ba(OH)2 and ZnSO4. Cyclic AMP in the extracts was converted into the etheno-cAMP derivative, and the levels were estimated by HPLC using a fluorescence detector (W. Wojcik et al., J. Cyclic Nucleotide Res. 7:27-35 (1981)). The level of cAMP in an unknown extract was determined by extrapolation from a standard graph. A linear relationship between the cAMP level in the extracted samples and fluorescence detection was observed. […] However, this increase may not be a specific effect. Although adenosine contamination in the tested AP4 A agents was not detected, it is possible that either cellular adenosine nucleotide metabolic products or contaminated adenosine in the tested agents may be responsible for the elevated cAMP level.

platelet cAMP level [9] = test: as above; assay type: cell-based, human; details: forskolin 101 μM as printed, positive control, in words
[10] = in words, cited from earlier work; for side effects / bleeding risk: clinical

Compound: CNc1ccc2oc(C[C@H]3O[C@@]4(CC[C@H]3C)O[C@H]([C@H](C)C(=O)c3ccc[nH]3)[C@H](C)C[C@H]4C)nc2c1C(=O)O [A23187]
fluorescence intensity (FI), peak ([1]; 2 μM A23187, positive control): 530

Compound: Nc1ncnc2c1ncn2[C@@H]1O[C@H](COP(=O)(O)OP(=O)(O)O)[C@@H](O)[C@H]1O [ADP, adenosine diphosphate]
fluorescence intensity (FI), peak ([1]; 6.7 μM ADP, no agent): 158

Compound: Nc1ncnc2c1ncn2[C@@H]1O[C@H](COP(=O)(O)OP(=O)(O)OP(=O)(O)OC[C@H]2O[C@@H](n3cnc4c(N)ncnc43)[C@H](O)[C@@H]2O)[C@@H](O)[C@H]1O [AP3 A, diadenosine 5', 5'"-p^1, p^3 -triphosphate]
effect on platelet aggregation ([2]; AP3 A, in words): gradual aggregation of platelets | degradation products in plasma [3]: hydrolyzed in plasma to AMP (adenosine monophosphate) and ADP (adenosine diphosphate)

Compound: Nc1ncnc2c1ncn2[C@@H]1O[C@H](COP(=O)(O)OP(=O)(O)OP(=O)(O)OP(=O)(O)OC[C@H]2O[C@@H](n3cnc4c(N)ncnc43)[C@H](O)[C@@H]2O)[C@@H](O)[C@H]1O [AP4 A, diadenosine 5', 5'"-P^1,P^4 -tetraphosphate]
half-life in rabbit blood ([4]; in vivo and ex vivo): short half-life | ex vivo decay compared to in vivo clearance ([4]; rabbit blood): significantly longer | dispersion of aggregated platelets ([2]; even when aggregation has progressed to 60% completion): immediate dispersion of aggregated platelets | effect on ADP-induced platelet aggregation ([2]; in vitro, in words): competitive inhibitor; also recorded: competitively inhibits | effect on ADP-induced platelet aggregation on administration to a mammal [5]: inhibit markedly ADP-induced platelet aggregation | effect on thrombus formation on administration to a mammal [5]: inhibit thrombus formation | AP4 A degraded in plasma ([3]; ^32 P-labeled, normal plasma, ten minutes, 37° C., 10 min): 90% | degradation products in plasma [3]: degraded to AMP and ATP (adenosine triphosphate)

Compound: Nc1ncnc2c1ncn2[C@@H]1O[C@H](COP(=O)(O)OP(=O)(O)C(F)P(=O)(O)OP(=O)(O)OC[C@H]2O[C@@H](n3cnc4c(N)ncnc43)[C@H](O)[C@@H]2O)[C@@H](O)[C@H]1O (some centres unmarked) [AppCHFppA]
ID10 [6]: 4 µM

IC50 ([7]; read-out: IC50): > 100 µM
Compound: Nc1ncnc2c1ncn2[C@H]1C[C@H](O)[C@@H](COP(=O)(O)OP(=O)(O)C(Cl)P(=O)(O)OP(=O)(O)OC[C@H]2O[C@@H](n3cnc4c(N)ncnc43)C[C@@H]2O)O1 (some centres unmarked) [CHCl-dAP4 dA]

Compound: C=C[C@@]1(C)CC(=O)[C@]2(O)[C@@]3(C)[C@@H](O)CCC(C)(C)[C@@H]3[C@H](O)[C@H](OC(C)=O)[C@@]2(C)O1 [Forskolin]
platelet cAMP level (platelet cAMP level [8]): 124.4 nM | effect on platelet cAMP (platelet cAMP level [9]): marked increase

Compound: Nc1ncnc2c1ncn2[C@H]1C[C@H](O)[C@@H](COP(O)(=S)OP(=O)(O)C(Cl)P(=O)(O)OP(O)(=S)OC[C@H]2O[C@@H](n3cnc4c(N)ncnc43)C[C@@H]2O)O1 (some centres unmarked) [Thio-CHCl-dAP4 dA]
IC50 [7]: 9.22 µM

Compound: CC(=O)Oc1ccccc1C(=O)O [aspirin]
clinical effectiveness [10]: useful but limited effectiveness

Compound: Clc1ccccc1CN1CCc2sccc2C1 [ticlopidine]
side effects / bleeding risk [10]: substantial side effects

Compound: ReoPro: newer drugs, such as ReoPro (7E3)
side effects / bleeding risk [10]: increased risk of major bleeding
